Source: US9789111B2, “Casein kinase 1δ (CK 1δ) inhibitors” (Electrophoretics Limited, priority 2010, dated 2017)

What was measured:
[1] = tested on: Tau phosphorylation in SH-SY5Y-TMHT cells; experiment: PhosphoTau SRM assay V2 and V3 (mass spectrometric); type: cell-based, human; conditions: for relative level of phosphorylation at each site (level of phosphopeptide) compared with vehicle treated controls / Tau phosphorylated at S396: 10 μM; for relative level of phosphorylation at each site (level of phosphopeptide) compared with vehicle treated controls: PhosphoTau SRM assay V2 and V3; for Tau phosphorylated at S396: vehicle control approximately 83%; for phosphorylation of Ser 396 within Tau proteins: FIG. 4
Excerpt: The PhosphoTau SRM V2 assay measures total tau and relative phosphorylation levels at five of the most commonly studied sites on Tau and was obtained from Proteome Sciences plc (Cobham, England). None of the sites in the V2 assay is uniquely phosphorylated by CK1δ and there is a possibility that compound-induced inhibition of phosphorylation measured by this method may be achieved through promiscuous inhibition of other kinases such as GSK3b and/or CDK5. […] Table 1 lists the various sites covered and the candidate Tau kinases reported in Hanger et al. (2007).
SH-SY5Y-TMHT cells are kept in culture medium (DMEM medium, 10% FCS, 1% NEAA, 1% L-Glutamine, 100 μg/ml Gentamycin, 300 μg/ml Geneticin G-418) for 2 days until 80-90% confluency. Cells are then differentiated in culture medium supplemented with 10 μM retinoic acid (RA) for 7 days changing medium every 2 to 3 days. […] On day 8 post-differentiation, the test compounds, reference compounds and vehicle control were added to the culture medium. After 6 h of compound exposure one plate of cells is subjected to a MTT assay to evaluate the effect of test and reference items on cell viability. Remaining wells are washed once with cold PBS and harvested in 300 μl RIPA-Buffer [50 mM Tris pH 7.4, 1% Nonident P40, 0.25% Na-deoxy-cholate, 150 mM NaCl, 1 mM EDTA, 1 μM NaF, 1 μM Na-ortho-vanadate, 80 mM Glycerophosphate, supplemented with freshly added protease (Calbiochem) and phosphatase (Sigma) inhibitor cocktail]. The cell suspension is transferred into a 1.5 ml tube and additionally lysed by sonication on ice. An aliquot of 20 μl is taken for the determination of the protein concentration (BCA assay). Subsequently, the lysates are snap frozen and stored at −80° C. until shipment.
Stacking gels are loaded with approximately 100 μg total protein based on BCA assay results. Gels are run until the total protein content forms a single discrete band in the stacking gel. Each protein band is then cut from the gel and digested with either trypsin or Asp-N and analysed using the PhosphoTau SRM assay V2 or V3 respectively. Each assay method quantifies the phosphorylation in pre-clinical material using a triple quadrupole mass spectrometer (TSQ Vantage, Thermo Scientific, Hemel Hempstead, UK). Prior to SRM analysis phosphopeptides and pre-clinical samples were resolved by RP-chromatography (XBridge column, Waters, Manchester, UK) over a 9 minute gradient 0-30% ACN (buffer A; 0.1% FA, buffer B; ACN, 0.1% FA). Light and heavy versions for each peptide and phosphopeptide were monitored by several SRM transitions, using optimised S Lens values and collision energy settings. The area under the SRM LC peak was used to quantitate the amount of analyte present in each cell lysate as a single point reference to the signal of the heavy peptide spike.
An 11 point calibration curve of light phosphopeptides with each point in the curve spiked with 100 fmol heavy phosphopeptides was also produced to determine assay characteristics (LOD, LOQ, precision and accuracy). For each specified tau population, the endogenous level of each tau phosphopeptide was quantified against its calibration curve (0.25-1000 fmol on column). Prior to LC-SRM analysis each tau population was spiked with 100 fmol of the heavy phosphopeptide standards.

[2] = tested on: Tau phosphorylated at Threonine 231 in SH-SY5Y-TMHT cells; experiment: Western Blot of Tau phosphorylated at Threonine 231; type: cell-based, human; conditions: for detectable level of pT231 in Tau protein: 10 μM, Western Blot; for phosphorylation of Thr 231 within Tau proteins: FIG. 5
Description: SH-SY5Y-TMHT cells are kept in culture medium (DMEM medium, 10% FCS, 1% NEAA, 1% L-Glutamine, 100 μg/ml Gentamycin, 300 μg/ml Geneticin G-418) for 2 days until 80-90% confluency. Cells are then differentiated in culture medium supplemented with 10 μM retinoic acid (RA) for 7 days changing medium every 2 to 3 days. Differentiated cells are seeded onto 6-well plates and 96-well plates at a cell density of 1.25×10^6 and 8×10^5 cells per well, respectively. On day 8 post-differentiation, the test compounds, reference compounds and vehicle control were added to the culture medium. After 6 h of compound exposure one plate of cells is subjected to a MTT assay to evaluate the effect of test and reference items on cell viability. Remaining wells are washed once with cold PBS and harvested in 300 μl RIPA-Buffer [50 mM Tris pH 7.4, 1% Nonident P40, 0.25% Na-deoxy-cholate, 150 mM NaCl, 1 mM EDTA, 1 μM NaF, 1 μM Na-ortho-vanadate, 80 mM Glycerophosphate, supplemented with freshly added protease (Calbiochem) and phosphatase (Sigma) inhibitor cocktail]. The cell suspension is transferred into a 1.5 ml tube and additionally lysed by sonication on ice. An aliquot of 20 μl is taken for the determination of the protein concentration (BCA assay). Subsequently, the lysates are snap frozen and stored at −80° C. until shipment.
Lysates of treated cells were prepared in Laemmli buffer and 10 μg loaded into each lane of a 10% Nu-PAGE gel (Invitrogen, UK). Samples were run until the coomassie blue dye fromt was within 1 cm of the bottom of the gel. The separated proteins were transferred onto nitrocellulose and blots developed using antibodies specific for total tau (Polyclonal Rabbit Anti-Human Tau, Dako, UK (cat # A0024)) and phopho-Threonine 231 (Tau (Phospho-Thr231) Antibody, Signalway Antibody, USA (cat # 11110)) respectively. In each case the bound antibody was detected using ECL Rabbit IgG, HRP-Linked (from donkey) (GE Healthcare, UK (cat # NA934))

CK1g1 = CK1g1 (Homo sapiens, UniProt Q9HCP0); experiment: kinase inhibition assay panel; type: biochemical
CK1g1, sequence (Q9HCP0 whole entry): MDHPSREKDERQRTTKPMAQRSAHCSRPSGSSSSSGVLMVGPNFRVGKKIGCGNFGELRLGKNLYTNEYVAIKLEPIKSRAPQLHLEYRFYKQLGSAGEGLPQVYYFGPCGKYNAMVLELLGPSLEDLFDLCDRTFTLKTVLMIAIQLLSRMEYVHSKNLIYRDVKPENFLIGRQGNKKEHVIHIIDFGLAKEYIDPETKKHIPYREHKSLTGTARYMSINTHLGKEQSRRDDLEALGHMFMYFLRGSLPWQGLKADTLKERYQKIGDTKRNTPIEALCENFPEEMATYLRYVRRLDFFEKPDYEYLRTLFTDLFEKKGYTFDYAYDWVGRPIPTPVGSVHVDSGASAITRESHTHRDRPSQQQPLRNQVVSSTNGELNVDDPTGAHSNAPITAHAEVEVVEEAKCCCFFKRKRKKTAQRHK

| Compound | relative level of phosphorylation at each site (level of phosphopeptide) compared with vehicle treated controls [1] | Tau phosphorylated at S396 [1] | phosphorylation of Ser 396 within Tau proteins [1] | detectable level of pT231 in Tau protein [2] | phosphorylation of Thr 231 within Tau proteins [2] | inhibition of CK1g1 (CK1g1) |
| --- | --- | --- | --- | --- | --- | --- |
| NC(=O)c1c(N)c(C(=O)c2ccc(F)cc2)n2ccccc12 [Compound 987, 2-amino-3-[(4-fluorophenyl)carbonyl]indolizine-1-carboxamide] | distinct reduction | 24% | inhibit phosphorylation | reduced the detectable level of pT231 | inhibit phosphorylation | lower than 40% |
| Nc1ncc(-c2nc3ccccc3o2)c(-c2ccncc2)n1 [Compound 324, 5-(1,3-benzoxazol-2-yl)-4-(pyridin-4-yl)pyrimidin-2-amine] | distinct reduction | 38% | inhibit phosphorylation | reduced the detectable level of pT231 | inhibit phosphorylation | lower than 40% |
